# From US9167822B2, “Antifungal compositions” (DSM IP ASSETS B.V., priority 2012, dated 2015)
# Values joined by “and” are separate entries in the source; they are usually repeats but may differ in a detail not shown here. Equal entries are not always repeated.
# Legend:
# Botrytis cinerea [1] = test: Treatment of strawberries: wounded, inoculated with Botrytis cinerea, then dipped in antifungal composition; assay type: in vivo
# Procedure: (§1) Ten fresh, organic strawberries were used per treatment. Each strawberry was wounded with a 0.5 mm long cut and each wound was inoculated with 10 μl of a Botrytis cinerea suspension containing 1×10^5 of spores/ml. […] The pH of the compositions was 4. A composition without natamycin or bixafen was used as control. The treated strawberries were incubated in a closed box in the dark at 20° C.
# (§2) During incubation, mould growth on the strawberries was assessed in a twofold manner: (i) the number of moulded strawberries per total of 10 strawberries was counted; and (ii) the antifungal activity (in %) of the individual and combined active ingredients was determined by calculating the reduction in mould growth observed on the strawberries treated with the antifungal composition in comparison to the mould growth on the strawberries treated with the control composition. The expected antifungal activity (E in %) of the combined antifungal composition comprising both active ingredients was calculated according to the Colby equation (Colby, 1967): E=X+Y−[(X·Y)/100] wherein X and Y are the observed antifungal activities (in %) of the individual active ingredients X and Y, respectively. If the observed antifungal activity (O in %) of the combination exceeds the expected antifungal activity (E in %) of the combination and the synergy factor O/E is thus >1.0, the combined application of the active ingredients leads to a synergistic antifungal effect.
# The treated strawberries were assessed on mould growth. The antifungal activity (in %) of the individual and combined active ingredients was determined according to the method described in Example 3. […]
# Botrytis cinerea [2] = test: Treatment of strawberries: wounded, dipped in antifungal composition, then inoculated with Botrytis cinerea; assay type: in vivo; conditions: 1000 ppm bixafen or both
# Procedure: as §1, §2
# After treatment, each strawberry was inoculated with 10 μl of a Botrytis cinerea suspension containing 1×10^5 of spores/ml. The treated strawberries were assessed on mould growth according to the two methods described in Example 3.
# Penicillium italicum [3] = test: Treatment of mandarins wounded and inoculated with Penicillium italicum, then dipped; assay type: in vivo
# Procedure: Ten fresh, organic mandarins were used per treatment. The peel of each mandarin was wounded once using a cork borer according to the method described by de Lapeyre de Bellaire and Dubois (1987). Subsequently, each wound was inoculated with 10 μl of a Penicillium italicum suspension containing 1×10^5 of spores/ml. […] The pH of the compositions was 4.
# The treated mandarins were incubated in a closed box in the dark at 20° C. and assessed on mould growth during incubation.
# Penicillium italicum [4] = test: Treatment of apples wounded and inoculated with Penicillium italicum, then dipped; assay type: in vivo; conditions: for Number of moulded apples/total number of 10 apples: 500 ppm natamycin; for Number of moulded apples per total of 10 apples: 250 ppm natamycin
# Procedure: Ten fresh, organic apples were used per treatment. Each apple was wounded once using a cork borer according to the method described by de Lapeyre de Bellaire and Dubois (1987). Subsequently, each wound was inoculated with 10 μl of a Penicillium italicum suspension containing 1×10^6 of spores/ml. […] The pH of the compositions was 4. A composition without natamycin or bixafen was used as control. The treated apples were incubated in a closed box in the dark at 20° C. […]
# During incubation, the treated apples were assessed on mould growth according to the two methods described in Example 3. […]
# Penicillium italicum [5] = test: In vitro antifungal activity, 96-well microtiter plates; assay type: cell-based; conditions: 25° C.
# Procedure: Subsequently, 100 μl of a Botrytis cinerea suspension prepared in PCB medium was used to inoculated each well with 2.5×10^3 spores/ml.
# After incubation of the microtiter plates at 25° C., the in vitro antifungal activity (%) of the individual active ingredients was assessed by calculating the reduction in mould growth observed in the presence of the active ingredient in comparison to the mould growth observed in the absence of the active ingredient. The expected antifungal activity (E in %) of the active ingredient combination was calculated according to the Colby equation (Colby, 1967): E=X+Y−[(X·Y)/100] wherein X and Y are the observed antifungal activities (in %) of the individual active ingredients X and Y, respectively. If the observed antifungal activity (O in %) of the combination exceeds the expected antifungal activity (E in %) of the combination and the resulting synergy factor O/E is thus >1.0, the combined application of the active ingredients leads to a synergistic antifungal effect.
# Furthermore, Penicillium italicum was used for inoculation.
# [6] = day 3, 500 ppm natamycin, 2000 ppm bixafen or both
# [7] = day 4, 250 ppm natamycin, 250 ppm bixafen or both
# [8] = day 4, 250 ppm natamycin, 500 ppm bixafen or both
# [9] = day 4, 500 ppm natamycin, 2000 ppm bixafen or both
# [10] = day 6, 250 ppm natamycin, 250 ppm bixafen or both
# [11] = day 6, 250 ppm natamycin, 500 ppm bixafen or both
# [12] = day 6, 500 ppm natamycin, 2000 ppm bixafen or both
# [13] = day 7, 250 ppm natamycin, 250 ppm bixafen or both
# [14] = day 7, 250 ppm natamycin, 500 ppm bixafen or both
# [15] = day 9, 250 ppm natamycin, 500 ppm bixafen or both
# [16] = day 9, 500 ppm natamycin, 2000 ppm bixafen or both
# [17] = day 6, 500 ppm natamycin, 1000 ppm bixafen or both
# [18] = day 11, 500 ppm natamycin, 2000 ppm bixafen or both
# [19] = day 14, 500 ppm natamycin, 1000 ppm bixafen or both
# [20] = day 14, 500 ppm natamycin, 2000 ppm bixafen or both
structure (smiles),measurement,setting,value
"C[C@@H]1C/C=C/C=C/C=C/C=C/[C@H](O[C@@H]2O[C@H](C)[C@@H](O)[C@H](N)[C@@H]2O)C[C@@H]2O[C@](O)(C[C@@H](O)C[C@H]3O[C@@H]3/C=C/C(=O)O1)C[C@H](O)[C@H]2C(=O)O [Natamycin, natamycin]",Number of moulded strawberries/total number of 10 strawberries,"Botrytis cinerea [1]; Day 3, 20° C., 250 ppm natamycin, 250 ppm bixafen or both",8 and 8/10
same,Number of moulded strawberries/total number of 10 strawberries,"Botrytis cinerea [1]; Day 3, 20° C., 500 ppm natamycin, 2000 ppm bixafen or both",10 and 10/10
same,Number of moulded strawberries/total number of 10 strawberries,"Botrytis cinerea [1]; Day 4, 20° C., 250 ppm natamycin, 250 ppm bixafen or both",10 and 10/10
same,Number of moulded strawberries/total number of 10 strawberries,"Botrytis cinerea [1]; Day 4, 20° C., 500 ppm natamycin, 2000 ppm bixafen or both",10 and 10/10
same,Number of moulded strawberries/total number of 10 strawberries,"Botrytis cinerea [1]; Day 5, 20° C., 250 ppm natamycin, 250 ppm bixafen or both",10 and 10/10
same,Number of moulded strawberries/total number of 10 strawberries,"Botrytis cinerea [1]; Day 5-6, 20° C., 500 ppm natamycin, 2000 ppm bixafen or both",10 and 10/10
same,Observed antifungal activity O (%),Botrytis cinerea [1]; [6],21%
same,Observed antifungal activity O (%),Botrytis cinerea [1]; [7],6%
same,Observed antifungal activity O (%),Botrytis cinerea [1]; [8],6%
same,Observed antifungal activity O (%),Botrytis cinerea [1]; [9],16%
same,Observed antifungal activity O (%),"Botrytis cinerea [1]; day 5, 250 ppm natamycin, 250 ppm bixafen or both",2%
same,Observed antifungal activity O (%),"Botrytis cinerea [1]; day 5, 500 ppm natamycin, 2000 ppm bixafen or both",3%
same,Observed antifungal activity O (%),Botrytis cinerea [1]; [10],0%
same,Observed antifungal activity O (%),Botrytis cinerea [1]; [11],0%
same,Observed antifungal activity O (%),Botrytis cinerea [1]; [12],0%
same,Observed antifungal activity O (%),Botrytis cinerea [1]; [13],0%
same,Observed antifungal activity O (%),Botrytis cinerea [1]; [14],0%
same,Observed antifungal activity O (%),"Botrytis cinerea [1]; day 7, 500 ppm natamycin, 2000 ppm bixafen or both",0%
same,Observed antifungal activity O (%),Botrytis cinerea [1]; [15],0%
same,Observed antifungal activity O (%),Botrytis cinerea [1]; [16],0%
same,Observed antifungal activity O (%),"Botrytis cinerea [1]; day 10, 250 ppm natamycin, 500 ppm bixafen or both",0%
same,Observed antifungal activity O (%),"Botrytis cinerea [2]; day 3, 500 ppm natamycin",59%
same,Number of moulded wounds/total number of 10 wounds,"Botrytis cinerea [2]; day 5, 20° C., 250 ppm natamycin",10 and 10/10
same,Observed antifungal activity O (%),"Botrytis cinerea [2]; day 5, 500 ppm natamycin",19%
same,Observed antifungal activity O (%),"Botrytis cinerea [2]; day 6, 500 ppm natamycin",12%
same,Observed antifungal activity O (%),"Penicillium italicum [3]; day 3, 250 ppm natamycin, 250 ppm bixafen or both",70%
same,Observed antifungal activity O (%),Penicillium italicum [3]; [7],43%
same,Observed antifungal activity O (%),Penicillium italicum [3]; [8],43%
same,Observed antifungal activity O (%),"Penicillium italicum [3]; day 4, 500 ppm natamycin, 1000 ppm bixafen or both",63%
same,Observed antifungal activity O (%),Penicillium italicum [3]; [9],63%
same,Observed antifungal activity O (%),Penicillium italicum [3]; [10],18%
same,Observed antifungal activity O (%),Penicillium italicum [3]; [11],18%
same,Observed antifungal activity O (%),Penicillium italicum [3]; [17],28%
same,Observed antifungal activity O (%),Penicillium italicum [3]; [12],28%
same,Observed antifungal activity O (%),Penicillium italicum [3]; [13],10%
same,Observed antifungal activity O (%),Penicillium italicum [3]; [14],10%
same,Observed antifungal activity O (%),"Penicillium italicum [3]; day 7, 500 ppm natamycin, 1000 ppm bixafen or both",16%
same,Observed antifungal activity O (%),"Penicillium italicum [3]; day 9, 250 ppm natamycin, 250 ppm bixafen or both",8%
same,Observed antifungal activity O (%),Penicillium italicum [3]; [15],8%
same,Observed antifungal activity O (%),"Penicillium italicum [3]; day 11, 250 ppm natamycin, 500 ppm bixafen or both",13%
same,Observed antifungal activity O (%),Penicillium italicum [3]; [18],13%
same,Observed antifungal activity O (%),"Penicillium italicum [3]; day 13, 250 ppm natamycin, 500 ppm bixafen or both",12%
same,Observed antifungal activity O (%),Penicillium italicum [3]; [19],9%
same,Observed antifungal activity O (%),Penicillium italicum [3]; [20],9%
same,Observed antifungal activity O (%),"Penicillium italicum [3]; day 15, 250 ppm natamycin, 500 ppm bixafen or both",6%
same,Observed antifungal activity O (%),"Penicillium italicum [3]; day 15, 500 ppm natamycin, 1000 ppm bixafen or both",5%
same,Observed antifungal activity O (%),"Penicillium italicum [3]; day 15, 500 ppm natamycin, 2000 ppm bixafen or both",5%
same,Number of moulded apples/total number of 10 apples,"Penicillium italicum [4]; Day 3, 20° C., 1000 ppm bixafen or both",9 and 9/10
same,Number of moulded apples/total number of 10 apples,"Penicillium italicum [4]; Day 3-4, 20° C., 2000 ppm bixafen or both",9 and 9/10
same,Number of moulded apples/total number of 10 apples,"Penicillium italicum [4]; Day 4, 20° C., 1000 ppm bixafen or both",9 and 9/10
same,Number of moulded apples per total of 10 apples,"Penicillium italicum [4]; Day 6, 20° C., 500 ppm bixafen or both",10 and 10/10
same,Number of moulded apples/total number of 10 apples,"Penicillium italicum [4]; Day 6, 20° C., 1000 ppm bixafen or both",10 and 10/10
same,Number of moulded apples/total number of 10 apples,"Penicillium italicum [4]; Day 6, 20° C., 2000 ppm bixafen or both",10 and 10/10
same,Number of moulded apples per total of 10 apples,"Penicillium italicum [4]; Day 6-9, 20° C., 250 ppm bixafen or both",all and 10/10
same,Number of moulded apples per total of 10 apples,"Penicillium italicum [4]; Day 7, 20° C., 500 ppm bixafen or both",10 and 10/10
same,Number of moulded apples/total number of 10 apples,"Penicillium italicum [4]; Day 7, 20° C., 1000 ppm bixafen or both",10 and 10/10
same,Number of moulded apples/total number of 10 apples,"Penicillium italicum [4]; Day 7, 20° C., 2000 ppm bixafen or both",10 and 10/10
same,Number of moulded apples per total of 10 apples,"Penicillium italicum [4]; Day 9, 20° C., 500 ppm bixafen or both",10 and 10/10
same,Number of moulded apples/total number of 10 apples,"Penicillium italicum [4]; Day 9-14, 20° C., 1000 ppm bixafen or both",all and 10/10
same,Number of moulded apples/total number of 10 apples,"Penicillium italicum [4]; Day 9-14, 20° C., 2000 ppm bixafen or both",all and 10/10
same,Number of moulded apples per total of 10 apples,"Penicillium italicum [4]; Day 11-15, 20° C., 250 ppm bixafen or both",all and 10/10
same,Observed antifungal activity O (%),"Penicillium italicum [4]; day 3, 500 ppm natamycin, 1000 ppm bixafen or both",33%
same,Observed antifungal activity O (%),Penicillium italicum [4]; [6],33%
same,Observed antifungal activity O (%),"Penicillium italicum [4]; day 6, 250 ppm natamycin, 250 ppm bixafen or both (bixafen 500 ppm)",38%
same,Observed antifungal activity O (%),Penicillium italicum [4]; [11],38%
same,Observed antifungal activity O (%),Penicillium italicum [4]; [17],6%
same,Observed antifungal activity O (%),Penicillium italicum [4]; [12],6%
same,Observed antifungal activity O (%),Penicillium italicum [4]; [14],42%
same,Observed antifungal activity O (%),"Penicillium italicum [4]; day 9, 250 ppm natamycin, 250 ppm bixafen or both (bixafen 500 ppm)",35%
same,Observed antifungal activity O (%),Penicillium italicum [4]; [15],35%
same,Observed antifungal activity O (%),"Penicillium italicum [4]; day 9, 500 ppm natamycin, 1000 ppm bixafen or both",21%
same,Observed antifungal activity O (%),Penicillium italicum [4]; [16],21%
same,Observed antifungal activity O (%),"Penicillium italicum [4]; day 11, 250 ppm natamycin, 250 ppm bixafen or both (bixafen 500 ppm)",42%
same,Observed antifungal activity O (%),"Penicillium italicum [4]; day 11, 500 ppm natamycin, 1000 ppm bixafen or both",26%
same,Observed antifungal activity O (%),Penicillium italicum [4]; [18],26%
same,Observed antifungal activity O (%),"Penicillium italicum [4]; day 14, 250 ppm natamycin, 250 ppm bixafen or both (bixafen 500 ppm)",49%
same,Observed antifungal activity O (%),Penicillium italicum [4]; [19],30%
same,Observed antifungal activity O (%),Penicillium italicum [4]; [20],30%
same,Observed antifungal activity O (%),"Penicillium italicum [5]; day 10, 0.63 ppm natamycin, 25 ppm isopyrazam or both",0%
same,Observed antifungal activity O (%),"Penicillium italicum [5]; day 10, 1.25 ppm natamycin, 25 ppm bixafen or both",0%
